One test deals with HUVEC cell. The test is described as follows: Cell proliferation inhibition assay (SRB) on HUVEC cells highly expressing VEGFR. The settings on record: Homo sapiens, 72 h, read-out: IC50 (VEGFR/HUVEC).
Test [1] deals with recombinant human VEGF-R2 (Homo sapiens, UniProt P35968). The test is described as follows: VEGF-R2 kinase assay (ELISA, DELFIA time-resolved fluorescence). For orientation: In an ELISA, binding on a coated surface is turned into a signal by an enzyme label.
recombinant human VEGF-R2, sequence (P35968 789-1356 limits assumed): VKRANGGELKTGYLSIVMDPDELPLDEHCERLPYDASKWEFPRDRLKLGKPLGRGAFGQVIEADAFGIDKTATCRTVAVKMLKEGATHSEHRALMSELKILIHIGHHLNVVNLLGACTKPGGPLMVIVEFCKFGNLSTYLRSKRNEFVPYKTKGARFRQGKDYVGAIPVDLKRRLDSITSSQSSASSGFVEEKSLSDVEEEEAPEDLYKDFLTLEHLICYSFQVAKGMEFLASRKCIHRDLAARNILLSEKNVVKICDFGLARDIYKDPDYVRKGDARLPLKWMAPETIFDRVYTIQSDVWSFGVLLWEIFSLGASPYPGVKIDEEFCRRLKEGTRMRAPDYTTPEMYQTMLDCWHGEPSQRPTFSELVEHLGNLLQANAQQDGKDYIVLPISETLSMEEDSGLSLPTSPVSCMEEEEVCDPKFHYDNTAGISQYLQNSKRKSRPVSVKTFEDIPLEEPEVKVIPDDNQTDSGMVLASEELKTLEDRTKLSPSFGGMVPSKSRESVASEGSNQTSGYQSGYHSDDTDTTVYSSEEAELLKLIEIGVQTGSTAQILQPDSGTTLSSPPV
Experimental: This assay is used to measure the in vitro kinase activity of recombinant human VEGF-R2 in an enzyme-linked immunosorbent assay (ELISA).
• a. […] Stopping solution: 50 mM EDTA, pH 8.0. • d. DELFIA® Europium-labeled Anti-mouse IgG (PerkinElmer Life Sciences #AD0124). • e. […] DELFIA® Streptavidin coated, 96-well, yellow plate (PerkinElmer Life Sciences #AAAND-0005). • g. Recombinant human VEGFR-2 kinase (supplied in 50 mM Tris-HCl, pH8.0, 100 mM NaCl, 5 mM DTT, 15 mM reduced glutathione and 20% glycerol). […] HTScan™ Tyrosine Kinase Buffer (4×). • 1× Kinase Buffer: • 60 mM HEPES • 5 mM MgCl2 • 5 mM MnCl2 • 3 μM Na3VO4 • l. […] Procedure
The following protocol was used: • 1. […] VEGFR-2 kinase was transferred from −80° C. to ice immediately, and the kinase was thawed on ice. • 4. 2.2 μs VEGFR-2 enzyme was added to enzyme tube. • 5. […] 0.75 ml of DTT/Kinase buffer was transferred to the enzyme tube to prepare 4× reaction cocktail, and 7.5 μl 4× reaction cocktail was added to each assay. • 7. 2 μl ATP (10 mM) was added to 498 μl dH2O, and 7.5 μl was added to each assay. […] The reaction tube was incubated at 25° C. for 30 minutes. • 9. 30 μl/assay stopping solution (50 mM EDTA, pH 8.0) was added to stop the reaction. • 10. 25 μl of each reaction and 75 μl dH2O were transferred to a 96-well streptavidin coated plate, with shaking at room temperature for 60 minutes. • 11. Each well was washed for three times with 200 μl PBS-T buffer. Plate was patted on paper towel to remove excess liquid. • 12. […] The plate was incubated with shaking at room temperature for 60 minutes. • 14. Washing step was carried out as described in step 11. • 15. […] The plate was incubated with shaking at room temperature for 30 minutes. • 17. Each well was washed for five times with 200 μl PBS-T buffer. Plate was patted on paper towel to remove excess liquid. • 18. 100 μl DELFIA® Enhancement Solution was added to each well. • 19. The plate was incubated with shaking at room temperature for 5 minutes. • 20. The fluorescence intensity was detected at wavelength of 615 nm in a time-resolved fluorescence mode on plate reader.
The IC50 value can be calculated from the IRs of compounds at different concentration gradients.

Text for HUVEC cell: The cellular assay described here is used to test anti-angiogenesis and proliferation inhibition activity and effect of the compounds through VEGFR on the cancer cells in vitro. The effect and activity is represented by the IC50 value that kills the cancer cells. The general procedures of the assay are as follows: The Homo sapiens cells that highly expressing VEGFR were chosen and seeded to 96-well cell culture plate at a suitable concentration (e.g., 5000 cells/mL medium). […] Then, the cell culture medium was replaced by fresh one with testing compounds added in it at serial concentrations (general 6 or 7 concentrations). Then the cells were put back to the incubator and cultured for 72 hours continuously. 72 hours later, the treated compounds were assayed for their proliferation status by using Sulforhodamine B (SRB) method. IC50 of compounds on tested cells was calculated by using data of inhibition rate of serial concentrations of the testing compounds.
The following protocol is used to assay the cell toxicity (anti-proliferation activity, which is expressed as IC50 value) of testing compounds of the invention on HUVEC cell: • 1. HUVEC cells were cultured with growth media (DMEM/F12, supplemented with 10% FBS) in 100 mm corning culture plate at 37° C., 5% CO2 till confluency. • 2. HUVEC cells were washed with cold PBS solution, then the cells were harvested by trypsinization and seeded in corning 96-well cell culture plates at a concentration of 50,000 cells/ml, 6 empty wells were left on each plate as plate background. • 3. The cells were cultured in 96-well plates at 37° C., 5% CO2, till 85% confluency. • 4. The compound stock solution was prepared by using DMSO to solve candidate compounds to a concentration of 20 mM. Then DMSO was used to dilute the stock solution to a serial concentration to prepare testing compound solution samples (e.g., 2 mM, 1 mM, 0.2 mM, 20 μM, 2 μM, 0.2 μM). • 5. Cell culture medium (DMEM/F12+10% FBS) was used to dilute the compound solution prepared previously. […] Background absorbance was measured in wells incubated only with growth medium. • 11. […]

Regarding `Cc1c(/C=C2\C(=O)Nc3cccc(-c4c(F)cccc4F)c32)[nH]c2c1C(=O)N(C[C@@H](O)CN1CCOCC1)CC2` [Example 20, (S,Z)-2-[4-(2,6-Difluoro-phenyl)-2-oxo-1,2-dihydro-indol-3-ylidenemethyl]-5-(2-hydroxy-3-morpholin-4-yl-propyl)-3-methyl-1,5,6,7-tetrahydro-pyrrolo[3,2-c]pyridin-4-one], the IC50 in the test with HUVEC cell is 0.01 µM.
Still for that read-out and setting: to `Cc1c(/C=C2\C(=O)Nc3ccc(Cl)cc32)[nH]c2c1C(=O)N(C[C@H](O)CN1CCOCC1)CC2` [Example 2, (R,Z)-2-(5-Chloro-2-oxo-1,2-dihydro-indol-3-ylidenemethyl)-5-(2-hydroxy-3-morpholin-4-yl-propyl)-3-methyl-1,5,6,7-tetrahydro-pyrrolo[3,2-c]pyridin-4-one] belongs 2.4 µM.
Consider `Cc1c(/C=C2\C(=O)Nc3ccc(Br)cc32)[nH]c2c1C(=O)N(C[C@H](O)CN1CCOCC1)CC2` [Example 4, (R,Z)-2-(5-Bromo-2-oxo-1,2-dihydro-indol-3-ylidenemethyl)-5-(2-hydroxy-3-morpholin-4-yl-propyl)-3-methyl-1,5,6,7-tetrahydro-pyrrolo[3,2-c]pyridin-4-one], for which the IC50 in test [1] is 0.998 µM.
Same read-out and setting: to `COCC(=O)Nc1cc2c(cc1F)/C(=C/c1[nH]c3c(c1C)C(=O)N(C[C@H](O)CN1CCOCC1)CC3)C(=O)N2` [Example 16, (R,Z)-N-{5-Fluoro-3-[5-(2-hydroxy-3-morpholin-4-yl-propyl)-3-methyl-4-oxo-4,5,6,7-tetrahydro-1H-pyrrolo[3,2-c]pyridin-2-ylmethylene]-2-oxo-2,3-dihydro-1H-indol-6-yl}-2-methoxy-acetamide] belongs 0.11 µM; to `Cc1c(/C=C2\C(=O)Nc3cc(NC(=O)C(C)(C)O)c(F)cc32)[nH]c2c1C(=O)N(C[C@H](O)CN1CCOCC1)CC2` [Example 17, (R,Z)-N-{5-Fluoro-3-[5-(2-hydroxy-3-morpholin-4-yl-propyl)-3-methyl-4-oxo-4,5,6,7-tetrahydro-1H-pyrrolo[3,2-c]pyridin-2-ylmethylene]-2-oxo-2,3-dihydro-1H-indol-6-yl}-2-hydroxy-2-methyl-propionamide], 0.004 µM.
For the molecule `Cc1c(/C=C2\C(=O)Nc3cccc(-c4cccc(F)c4F)c32)[nH]c2c1C(=O)N(C[C@H](O)CN1CCOCC1)CC2` [Example 3, 2-[(Z)-4-(2,3-Difluoro-phenyl)-2-oxo-1,2-dihydro-indol-3-ylidenemethyl]-5-[(R)-2-hydroxy-3-morpholin-4-yl-propyl]-3-methyl-1,5,6,7-tetrahydro-pyrrolo[3,2-c]pyridin-4-one], the IC50 in the test on HUVEC cell was 0.84 µM.
As for `Cc1c(/C=C2\C(=O)Nc3cc(NC(=O)C(C)(C)O)c(F)cc32)[nH]c2c1C(=O)N(C[C@@H](O)CN1CCOCC1)CC2` [Example 11, (S,Z)-N-{5-Fluoro-3[5-(2-hydroxy-3-morpholin-4-yl-propyl)-3-methyl-4-oxo-4,5,6,7-tetrahydro-1H-pyrrolo[3,2-c]pyridin-2-ylmethylene]-2-oxo-2,3-dihydro-1H-indol-6-yl}-2-hydroxy-2-methyl-propionamide], in test [1], the IC50 turned out to be 0.003 µM.
In the case of `COCC(=O)Nc1cc2c(cc1F)/C(=C/c1[nH]c3c(c1C)C(=O)N(C[C@@H](O)CN1CCOCC1)CC3)C(=O)N2` [Example 13, (S,Z)-N-{5-Fluoro-3-[5-(2-hydroxy-3-morpholin-4-yl-propyl)-3-methyl-4-oxo-4,5,6,7-tetrahydro-1H-pyrrolo[3,2-c]pyridin-2-ylmethylene]-2-oxo-2,3-dihydro-1H-indol-6-yl}-2-methoxy-acetamide], the IC50 in test [1] is 0.13 µM.

The record behind these values is US8299069B2, “2-(2-oxoindoline-3-ylidene)methyl-5-(2-hydroxy-3-morpholin-4-yl-propyl)-6,7-dihydro-1H-pyrrol[3,2-C]pyridine-4(5H)-one compounds and use as protein kinase inhibitors” (Jiangsu Hengrui Medicine Co., Ltd., priority 2007, dated 2012).
